Measurements: ChEMBL document CHEMBL3301361, “Experimental in vitro DMPK and physicochemical data on a set of publicly disclosed compounds”
In brackets after ≈: the same amount, converted by molar mass.

Assay: physchem
Details: pH 7.4 buffer

Structure (SMILES)	solubility thermodynamic [µM]
COc1cc2ncnc(Nc3cccc(Cl)c3F)c2cc1CN1CCCC[C@@H]1C(N)=O	10 (≈ 4.44 µg/mL)
CC(C)(C)OC(=O)N1C[C@@H]2CC[C@H]1CN2c1ncc(OCc2ccc(S(C)(=O)=O)cc2)cn1	7.1 (≈ 3.37 µg/mL)
COc1cnc(Cl)c(Nc2ncnc3cc(OCCN4CCN(C(C)=O)CC4)cc(OC(C)C)c23)n1	22.4 (≈ 11.6 µg/mL)
COc1cc2c(Nc3c(Cl)ccc4c3OCO4)ncnc2cc1OCCCN1CCOCC1	70.8 (≈ 33.5 µg/mL)
COc1cc(N2CCN(CC(=O)N(C)C)CC2)ccc1Nc1ncc(Cl)c(-c2cnc3ccccn23)n1	5 (≈ 2.61 µg/mL)
O=C(NC1CCN(C(=O)c2cccs2)CC1)c1ccccc1	166 (≈ 52.2 µg/mL)
Oc1cc(-c2ccc3c(c2)OCO3)nc2ccccc12	6.2 (≈ 1.64 µg/mL)
CCN(C(=O)Cc1ccc(S(C)(=O)=O)cc1)C1CCN(CC[C@@H](c2ccccc2)N2CCN(S(=O)(=O)CC(F)(F)F)CC2)CC1	490 (≈ 330 µg/mL)
CN(C)C(=O)[C@H](Cc1ccccc1)NC(=O)c1cc2cc(Br)ccc2[nH]1	1 (≈ 0.414 µg/mL)
Cc1ccc(Oc2ccc(Nc3ncnc4cccc(O[C@H](C)C(=O)N5CCOCC5)c34)cc2Cl)cn1	2.3 (≈ 1.2 µg/mL)
C[C@@H](Oc1cccc2ncnc(Nc3ccc4c(cnn4Cc4nccs4)c3)c12)C(=O)N(C)C	29.5 (≈ 14 µg/mL)
CN(C)CCCN(C)c1nc2cc(Cl)c(Cl)cc2nc1/C=C/c1ccccc1	5.8 (≈ 2.41 µg/mL)
CCn1cc(NC(=O)Cc2ccc(Oc3ccnc4cc(OC)c(OC)cc34)cc2)cn1	10.7 (≈ 4.63 µg/mL)
COc1ccc(Cl)c(Nc2ncnc3cc(OCCN4CCOCC4)cc(OC(C)C)c23)n1	26.9 (≈ 12.7 µg/mL)
COc1cc(OC2CCOCC2)c2c(Nc3ccc(F)c(Cl)c3)ncnc2c1	0.1 (≈ 0.0404 µg/mL)
COc1cc2c(Nc3cnc(NC(=O)c4ccccc4)nc3)ncnc2cc1OC[C@@H](O)CN1CCCCC1	1510 (≈ 802 µg/mL)
CNC(=O)[C@@H](NC(=O)[C@H](CC(C)C)[C@H](OCc1cccc2cccnc12)C(=O)NO)C(C)(C)C	1000 (≈ 473 µg/mL)
COc1cccc(N(C)c2ccnc(Nc3cc(N4CCOCC4)cc(N4CCOCC4)c3)n2)n1	15.5 (≈ 7.4 µg/mL)
Clc1ccc(-c2cn3cccnc3n2)cc1	20 (≈ 4.59 µg/mL)
CCN(CC)C(=O)C(C)(C)c1ccc2[nH]c(-c3cc(C)cc(C)c3)c(CCNCCCCc3ccncc3)c2c1	141 (≈ 76.1 µg/mL)
O=C(O)c1cc2ccc(F)cc2n1Cc1ccc(Cl)c(Cl)c1	182 (≈ 61.5 µg/mL)
C[C@H]1CN(c2ncc(OCc3ccc(S(C)(=O)=O)cc3)cn2)CCN1C(=O)OC(C)(C)C	2.2 (≈ 1.02 µg/mL)
CN(C)C(=O)Nc1ccc(Cl)c(Cl)c1 [DCMU]	132 (≈ 30.7 µg/mL)
Oc1cc(-c2ccccc2)nc2ccc(Cl)cc12	5.9 (≈ 1.51 µg/mL)

Structure (SMILES)	solubility thermodynamic [µM]
COc1cc(N2CCN(C(C)=O)CC2)ccc1Nc1ncc(Cl)c(-c2cnc3ccc(F)cn23)n1	1.3 (≈ 0.645 µg/mL)
O=C(Nc1ccccc1)c1cc(-n2cnnc2)ccc1Cl	407 (≈ 122 µg/mL)
Cc1nc(O)c2cc(-c3ccccc3)sc2n1	1.8 (≈ 0.436 µg/mL)
Cc1cc(C)cc(-c2[nH]c3sc(C(C)(C)C(=O)N4C5CCC4CC5)cc3c2CCN2CCC(C(=O)N3CCCC(O)C3)CC2)c1 (centres undefined)	87.1 (≈ 55 µg/mL)
COCCOc1cc2c(Oc3cnn(CC(=O)Nc4cccc(OC)c4)c3)ncnc2cc1OC	3.1 (≈ 1.49 µg/mL)
COc1cc(Nc2ncnc3[nH]nc(OCCN4CCC(O)CC4)c23)ccc1OCc1cccc(F)c1	5.6 (≈ 2.85 µg/mL)
Cc1ccc(Oc2ccc(Nc3ncnc4cccc(O[C@H](C)C(=O)NCCO)c34)cc2C)cn1	4.2 (≈ 1.99 µg/mL)
O=c1c2ccccc2oc2ccccc12 [XANTHONE]	20 (≈ 3.92 µg/mL)
Cc1ccc(-c2nnc(-c3ccccc3)o2)cc1	6.2 (≈ 1.46 µg/mL)
O=C(c1nnsc1S(=O)(=O)c1ccc(Cl)cc1)N1CCOCC1	17 (≈ 6.36 µg/mL)
O=[N+]([O-])c1ccc(CCl)cc1	501 (≈ 86 µg/mL)
O=C(Nc1ccccc1)c1ccc(OCCCN2CCCC2)cc1OCc1cccnc1	398 (≈ 172 µg/mL)
COc1ccc([C@H](CC(=O)O)N2CCN(CCCc3ccc4c(n3)NCCC4)C2=O)cn1	2.5 (≈ 1.1 µg/mL)
Cc1ccc2nc(-c3ccccc3)cc(O)c2c1	22.9 (≈ 5.39 µg/mL)
C[C@@H]1CN(C(=O)OC(C)(C)C)C[C@H](C)N1c1ncc(OCc2ccc(S(C)(=O)=O)cc2)cn1	4.1 (≈ 1.95 µg/mL)
CN(C(=O)Cc1ccc(S(C)(=O)=O)cc1)[C@@H]1CCN(Cc2nc3cc(F)ccc3s2)C[C@@H]1F	1.8 (≈ 0.888 µg/mL)
COc1ccc(Cn2c(CCc3c[nH]c4ccccc34)nnc2[C@@H](Cc2c[nH]c3ccccc23)NC(=O)C(C)(C)N)cc1	182 (≈ 105 µg/mL)
CC(C)(C)OC(=O)N1CCN(c2ccc(OCc3ccc(S(C)(=O)=O)cc3)cn2)CC1	1 (≈ 0.448 µg/mL)
O=C(N[C@@H](Cc1ccccc1)C(=O)N1CCC(O)CC1)c1cc2cc(Cl)ccc2[nH]1	5.1 (≈ 2.17 µg/mL)
CNC(=O)c1ccc(CC(=O)N(C)C2CCN(Cc3ccc(C(F)(F)F)cc3)CC2)cc1	107 (≈ 48 µg/mL)
COc1cc(OC2CCN(C)CC2)c2c(Nc3ccc(F)c(Cl)c3)ncnc2c1	2.1 (≈ 0.875 µg/mL)
CNC(=O)[C@H]1CCCN1Cc1cc2c(Nc3cccc(Cl)c3F)ncnc2cc1OC	282 (≈ 125 µg/mL)
Cc1c(Cc2ccc3ccccc3n2)c2cc(F)ccc2n1CC(=O)O [TIMAPIPRANT]	112 (≈ 39.1 µg/mL)
COc1cc(N2CCN(C(C)=O)CC2)ccc1Nc1ncc(F)c(-c2cnc3ccccn23)n1	14.5 (≈ 6.69 µg/mL)

Structure (SMILES)	solubility thermodynamic [µM]
OC1CCN(CCOc2n[nH]c3ncnc(Nc4ccc(OCc5ccccn5)c(Cl)c4)c23)CC1	13.8 (≈ 6.84 µg/mL)
CCc1cc(NC(=O)Cc2ccc(Oc3ccnc4cc(OC)c(OC)cc34)cc2OC)[nH]n1	11 (≈ 5.09 µg/mL)
N#CC1(NC(=O)[C@@H]2CCCC[C@H]2C(=O)N2CCc3[nH]c4c(C(F)(F)F)cccc4c3C2)CC1	144 (≈ 66.3 µg/mL)
Oc1ncnc2c1nnn2Cc1ccccc1	209 (≈ 47.5 µg/mL)
O=C(Cc1ccccc1)Nc1ccccc1O	246 (≈ 55.8 µg/mL)
CO[C@]1(c2cc(F)cc(S(=O)(=O)c3ccc(/C(C)=N/O)cc3)c2)CCO[C@@H](C)C1	4.7 (≈ 1.98 µg/mL)
O=C(c1ccc(F)cc1)C1CCN(C(=O)c2ccc(OC(F)(F)F)cc2)CC1	11.5 (≈ 4.55 µg/mL)
COc1cc2ncnc(Nc3ccc(F)c(Cl)c3)c2cc1CN1CCC[C@@H]1C(N)=O	5.1 (≈ 2.19 µg/mL)
Cc1ncc(-c2ccnc(Nc3ccc(N4CCOCC4)cc3)n2)n1C(C)C	56.2 (≈ 21.3 µg/mL)
N#CC1(NC(=O)[C@@H]2CCCC[C@H]2C(=O)N2CCc3[nH]c4c(F)cccc4c3C2)CC1	479 (≈ 195 µg/mL)
CSc1nc(N)n2nc(-c3ccco3)nc2n1	151 (≈ 37.6 µg/mL)
Cc1cccc2c3cc(NC(=O)N4CCOCC4)ccc3n(C(C)C)c12	5.1 (≈ 1.79 µg/mL)
CN(C(=O)Cc1ccc(-n2cnnn2)cc1)C1CCN(Cc2nc3c(s2)CCCC3)CC1	9.8 (≈ 4.43 µg/mL)
CC1(C)SCCN(S(=O)(=O)c2ccc(Oc3ccncc3)cc2)[C@H]1C(=O)NO [PRINOMASTAT]	69.2 (≈ 29.3 µg/mL)
Cc1cc(OC2CCN(CC3CCN([C@@](C)(Cc4ccc(F)cc4)C(=O)O)CC3)CC2)ccc1Cl	204 (≈ 103 µg/mL)
C#CCN(Cc1cc2c(=O)[nH]c(C)nc2cc1C)c1ccc(C(=O)NCc2cccc([N+](=O)[O-])c2)c(F)c1	0.1 (≈ 0.0514 µg/mL)
C[C@@H](Oc1cccc2ncnc(Nc3ccc4c(cnn4Cc4ccccn4)c3)c12)C(=O)N1CCCC1	110 (≈ 54.1 µg/mL)
Cc1sc(N2CCN(C(=O)[C@@H]3CCCC[C@H]3C(=O)NC3(C#N)CC3)CC2)nc1C(F)(F)F	1070 (≈ 503 µg/mL)
c1ccc(-c2cnn3cc(-c4ccncc4)cnc23)cc1	0.9 (≈ 0.245 µg/mL)
O=C(O)c1cc2cc(F)ccc2n1Cc1ccc(Cl)c(Cl)c1	209 (≈ 70.6 µg/mL)
CCCNC(=O)Nc1ccc(Oc2ncnc3cc(OC)c(OC)cc23)cc1Cl [KRN-633]	0.2 (≈ 0.0834 µg/mL)
O=C(O)CCC[C@@H]1c2ccccc2C[C@H]1NC(=O)c1cc2cc(F)ccc2[nH]1	85.1 (≈ 32.4 µg/mL)
CCc1cc(Nc2nc(NCc3cc(-c4ccccn4)no3)ncc2Br)n[nH]1	3.8 (≈ 1.68 µg/mL)
COc1ccccc1Oc1coc2cc(O)ccc2c1=O	12.9 (≈ 3.67 µg/mL)

Structure (SMILES)	solubility thermodynamic [µM]
CS(=O)(=O)Cc1cc(N2CC3CCC(C2)O3)nc(-c2ccc3[nH]ccc3c2)n1	1.5 (≈ 0.598 µg/mL)
CN1CCC(c2cc(N3CCOCC3)nc(-c3cccc4[nH]ccc34)n2)(S(C)(=O)=O)CC1	21.4 (≈ 9.75 µg/mL)
O=c1cc(-c2cccnc2)[nH]c2ccccc12	1350 (≈ 300 µg/mL)
COc1ccc(-c2cnn(C3CCS(=O)(=O)C3)c2N)cc1 (centres undefined)	81.3 (≈ 25 µg/mL)
COCCNS(=O)(=O)c1ccc(Nc2nccc(-c3cnc(C)n3C(C)C)n2)cc1	363 (≈ 156 µg/mL)
Cn1[nH]c(CSc2ccc(Cl)cc2)cc1=O	468 (≈ 119 µg/mL)
Cc1ccc(Oc2ccc(Nc3ncnc4cccc(O[C@@H](C)C(=O)N(C)C)c34)cc2C)cn1	26.3 (≈ 12 µg/mL)
Cc1ccnc(NC(=O)CSc2ccccn2)c1	436 (≈ 113 µg/mL)
C[C@@H]1CN(C(=O)OC(C)(C)C)CCN1c1ncc(OCC2CCN(S(C)(=O)=O)CC2)cn1	5 (≈ 2.35 µg/mL)
Cc1ccc(Oc2ccc(Nc3ncnc4cccc(O[C@@H](C)C(=O)N5CCOCC5)c34)cc2C)cn1	31.6 (≈ 15.8 µg/mL)
CNc1cccc(CCOc2ccc(C[C@H](NC(=O)c3c(Cl)cncc3Cl)C(=O)O)cc2)n1	1350 (≈ 660 µg/mL)
Nc1ccc2c(c1)cc(C(=O)O)n2Cc1ccc(Cl)c(Cl)c1	347 (≈ 116 µg/mL)
COc1cc2ncnc(Nc3cnn(CC(=O)Nc4cccc(F)c4)c3)c2cc1OC	2 (≈ 0.845 µg/mL)
CCOc1cccc2c3c([nH]c12)CCN(C(=O)[C@@H]1CCCC[C@H]1C(=O)NC1(C#N)CC1)C3	302 (≈ 131 µg/mL)
CC1(C)C=Cc2c(O)nc3ccccc3c2O1 [FLINDERSINE]	67.6 (≈ 15.4 µg/mL)
C[C@@H](O)C(=O)N1CC=C(c2c(F)cc(N3C[C@H](COc4ccon4)OC3=O)cc2F)CC1	25.1 (≈ 11.3 µg/mL)
CCn1cc(NC(=O)Cc2ncc(Oc3ccnc4cc(OC)ccc34)cc2OC)cn1	17.4 (≈ 7.54 µg/mL)
COc1cc(N2CCNC(=O)C2)ccc1Nc1ncc(Cl)c(-c2cnc3ccccn23)n1	4.9 (≈ 2.2 µg/mL)
COc1cc(CCc2cc(Nc3ccnc(NCc4cc(C)on4)n3)n[nH]2)cc(OC)c1	4.3 (≈ 1.87 µg/mL)
Nc1cccc(S(=O)(=O)Nc2ccccc2)c1	1020 (≈ 254 µg/mL)
CN(C(=O)Cc1ccc(S(C)(=O)=O)cc1F)C1CCN(Cc2ccc(C(F)(F)F)cc2)CC1	74.1 (≈ 36.1 µg/mL)
Cc1onc(-c2ccccc2)c1C(=O)OCC(=O)c1ccccc1	2 (≈ 0.643 µg/mL)
